In ChEMBL document CHEMBL5678818, “Discovery of potent SOS1 inhibitors that block RAS activation via disruption of the RAS-SOS1 interaction” (Proc Natl Acad Sci U S A, 2019):

Key:
[1] = test system: Mast/stem cell growth factor receptor Kit (Homo sapiens), P10721 [L576P]; experiment: Inhibition of KIT L576P mutant (unknown origin) assessed as residual activity at 100 nM by KINOMEscan analysis relative to control
[2] = molecular target: T1, Serine/threonine-protein kinase DCLK2 (Homo sapiens) (UniProt Q8N568); experiment: Inhibition of DCAMKL2 (unknown origin) assessed as residual activity at 100 nM by KINOMEscan analysis relative to control
T1 sequence (whole entry): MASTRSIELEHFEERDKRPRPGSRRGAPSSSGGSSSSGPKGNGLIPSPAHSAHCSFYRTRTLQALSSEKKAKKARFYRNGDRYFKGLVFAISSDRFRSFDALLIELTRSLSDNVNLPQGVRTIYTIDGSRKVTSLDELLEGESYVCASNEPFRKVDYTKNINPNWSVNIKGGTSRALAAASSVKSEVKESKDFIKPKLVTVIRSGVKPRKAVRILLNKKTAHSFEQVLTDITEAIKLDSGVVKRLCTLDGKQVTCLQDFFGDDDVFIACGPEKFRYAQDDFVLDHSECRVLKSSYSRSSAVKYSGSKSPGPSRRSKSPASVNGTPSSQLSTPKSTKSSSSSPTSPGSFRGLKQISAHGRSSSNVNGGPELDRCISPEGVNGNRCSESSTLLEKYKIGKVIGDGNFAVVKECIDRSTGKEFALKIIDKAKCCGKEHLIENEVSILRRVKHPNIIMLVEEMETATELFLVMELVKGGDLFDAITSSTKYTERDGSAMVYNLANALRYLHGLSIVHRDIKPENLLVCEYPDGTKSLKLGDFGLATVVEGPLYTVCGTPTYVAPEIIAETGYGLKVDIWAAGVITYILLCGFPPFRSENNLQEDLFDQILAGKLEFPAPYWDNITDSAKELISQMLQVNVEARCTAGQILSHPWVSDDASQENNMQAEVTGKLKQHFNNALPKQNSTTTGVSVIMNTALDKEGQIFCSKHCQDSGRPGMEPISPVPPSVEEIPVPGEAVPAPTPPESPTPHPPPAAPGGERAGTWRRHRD

[3] = molecular target: Ribosomal protein S6 kinase alpha-3 (Homo sapiens) (UniProt P51812); experiment: Inhibition of N-terminal RSK2 kinetic domain 1 (unknown origin) assessed as residual activity at 100 nM by KINOMEscan analysis relative to control
Chain of Ribosomal protein S6 kinase alpha-3 (Homo sapiens) (P51812 whole entry, the tested form may be a part): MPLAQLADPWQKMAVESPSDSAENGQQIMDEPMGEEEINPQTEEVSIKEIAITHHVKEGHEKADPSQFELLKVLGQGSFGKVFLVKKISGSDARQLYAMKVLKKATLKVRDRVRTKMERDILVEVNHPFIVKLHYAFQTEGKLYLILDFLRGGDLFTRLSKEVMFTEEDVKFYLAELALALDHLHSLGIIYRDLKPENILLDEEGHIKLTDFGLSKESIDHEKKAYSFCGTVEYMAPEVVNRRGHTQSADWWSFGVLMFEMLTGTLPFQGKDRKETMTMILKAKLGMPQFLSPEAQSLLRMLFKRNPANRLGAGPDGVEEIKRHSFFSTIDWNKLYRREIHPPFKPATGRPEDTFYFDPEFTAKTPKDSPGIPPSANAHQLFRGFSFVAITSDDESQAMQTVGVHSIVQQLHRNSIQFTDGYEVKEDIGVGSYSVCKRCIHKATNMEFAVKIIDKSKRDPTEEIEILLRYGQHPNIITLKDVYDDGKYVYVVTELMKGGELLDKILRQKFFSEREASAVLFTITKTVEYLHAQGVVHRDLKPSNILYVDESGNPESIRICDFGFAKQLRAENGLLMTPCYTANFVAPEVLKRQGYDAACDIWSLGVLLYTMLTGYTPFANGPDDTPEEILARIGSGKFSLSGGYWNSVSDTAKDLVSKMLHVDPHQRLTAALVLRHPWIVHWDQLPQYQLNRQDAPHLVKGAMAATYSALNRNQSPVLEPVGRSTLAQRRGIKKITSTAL

[4] = molecular target: T2, Mitogen-activated protein kinase kinase kinase 6 (Homo sapiens) (UniProt O95382); experiment: Inhibition of ASK2 (unknown origin) assessed as residual activity at 100 nM by KINOMEscan analysis relative to control
T2 sequence (whole entry): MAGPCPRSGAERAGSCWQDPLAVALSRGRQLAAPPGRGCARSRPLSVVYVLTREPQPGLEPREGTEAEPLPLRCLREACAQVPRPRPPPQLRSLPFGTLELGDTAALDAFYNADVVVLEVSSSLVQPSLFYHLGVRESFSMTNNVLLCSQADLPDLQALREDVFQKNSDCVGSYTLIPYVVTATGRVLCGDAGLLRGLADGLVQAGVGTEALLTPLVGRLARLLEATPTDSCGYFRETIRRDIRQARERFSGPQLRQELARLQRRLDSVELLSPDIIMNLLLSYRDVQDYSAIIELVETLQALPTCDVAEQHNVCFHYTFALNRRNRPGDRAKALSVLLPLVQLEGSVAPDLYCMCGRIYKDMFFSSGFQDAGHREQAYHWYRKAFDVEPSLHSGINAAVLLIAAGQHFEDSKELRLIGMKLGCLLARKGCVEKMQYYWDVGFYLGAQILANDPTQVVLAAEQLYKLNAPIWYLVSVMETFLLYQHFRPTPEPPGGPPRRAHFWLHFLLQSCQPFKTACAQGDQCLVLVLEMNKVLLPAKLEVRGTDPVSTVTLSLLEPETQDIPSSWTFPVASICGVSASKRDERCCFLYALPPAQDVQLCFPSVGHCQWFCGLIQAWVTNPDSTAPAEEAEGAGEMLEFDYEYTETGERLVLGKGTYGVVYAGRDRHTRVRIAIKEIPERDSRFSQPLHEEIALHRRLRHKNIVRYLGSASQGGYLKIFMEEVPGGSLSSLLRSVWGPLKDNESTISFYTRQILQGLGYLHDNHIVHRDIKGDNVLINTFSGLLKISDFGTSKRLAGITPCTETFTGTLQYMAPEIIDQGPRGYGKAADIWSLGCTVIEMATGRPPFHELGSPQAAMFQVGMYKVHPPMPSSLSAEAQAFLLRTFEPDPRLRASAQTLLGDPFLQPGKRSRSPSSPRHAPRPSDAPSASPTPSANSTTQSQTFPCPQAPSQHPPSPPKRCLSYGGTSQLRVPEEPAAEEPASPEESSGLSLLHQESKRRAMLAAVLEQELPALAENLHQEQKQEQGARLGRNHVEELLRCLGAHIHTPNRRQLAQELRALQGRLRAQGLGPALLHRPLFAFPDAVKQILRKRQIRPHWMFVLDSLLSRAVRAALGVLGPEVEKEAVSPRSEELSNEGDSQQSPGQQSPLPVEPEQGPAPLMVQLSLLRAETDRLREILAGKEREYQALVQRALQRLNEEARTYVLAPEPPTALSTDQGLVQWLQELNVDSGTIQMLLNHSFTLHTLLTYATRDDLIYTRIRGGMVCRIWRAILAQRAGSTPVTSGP

[5] = test system: Serine/threonine-protein kinase B-raf (Homo sapiens), P15056 [V600E]; experiment: Inhibition of BRAF V600E mutant (unknown origin) assessed as residual activity at 100 nM by KINOMEscan analysis relative to control
Chain of Serine/threonine-protein kinase B-raf (Homo sapiens), P15056 [V600E] (P15056 whole entry V600E): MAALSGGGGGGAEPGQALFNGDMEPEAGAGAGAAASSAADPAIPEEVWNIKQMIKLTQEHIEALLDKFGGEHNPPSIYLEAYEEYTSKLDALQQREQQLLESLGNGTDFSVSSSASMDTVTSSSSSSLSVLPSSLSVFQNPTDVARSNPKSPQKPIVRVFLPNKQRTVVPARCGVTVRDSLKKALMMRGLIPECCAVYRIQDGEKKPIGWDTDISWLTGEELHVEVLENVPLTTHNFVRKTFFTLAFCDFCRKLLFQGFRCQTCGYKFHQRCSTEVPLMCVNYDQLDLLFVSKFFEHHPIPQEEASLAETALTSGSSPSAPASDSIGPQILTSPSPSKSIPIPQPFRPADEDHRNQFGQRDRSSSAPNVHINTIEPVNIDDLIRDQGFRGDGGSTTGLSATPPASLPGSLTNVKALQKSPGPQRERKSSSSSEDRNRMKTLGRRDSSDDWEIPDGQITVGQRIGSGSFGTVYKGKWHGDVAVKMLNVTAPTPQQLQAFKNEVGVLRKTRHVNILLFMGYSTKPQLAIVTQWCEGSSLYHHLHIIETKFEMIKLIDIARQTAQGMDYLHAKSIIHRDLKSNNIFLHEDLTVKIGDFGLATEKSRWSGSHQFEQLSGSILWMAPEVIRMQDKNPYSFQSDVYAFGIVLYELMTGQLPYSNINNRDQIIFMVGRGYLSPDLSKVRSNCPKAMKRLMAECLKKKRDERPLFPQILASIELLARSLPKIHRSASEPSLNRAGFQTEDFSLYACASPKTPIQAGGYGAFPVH

[6] = molecular target: Fibroblast growth factor receptor 2 (Homo sapiens) (UniProt P21802); experiment: Inhibition of FGFR2 (unknown origin) assessed as residual activity at 100 nM by KINOMEscan analysis relative to control
[7] = molecular target: High affinity nerve growth factor receptor (Homo sapiens) (UniProt P04629); experiment: Inhibition of TRKA (unknown origin) assessed as residual activity at 100 nM by KINOMEscan analysis relative to control
[8] = molecular target: Peripheral plasma membrane protein CASK (Homo sapiens) (UniProt O14936); experiment: Inhibition of CASK (unknown origin) assessed as residual activity at 100 nM by KINOMEscan analysis relative to control
Chain of Peripheral plasma membrane protein CASK (Homo sapiens) (O14936 whole entry, looked up): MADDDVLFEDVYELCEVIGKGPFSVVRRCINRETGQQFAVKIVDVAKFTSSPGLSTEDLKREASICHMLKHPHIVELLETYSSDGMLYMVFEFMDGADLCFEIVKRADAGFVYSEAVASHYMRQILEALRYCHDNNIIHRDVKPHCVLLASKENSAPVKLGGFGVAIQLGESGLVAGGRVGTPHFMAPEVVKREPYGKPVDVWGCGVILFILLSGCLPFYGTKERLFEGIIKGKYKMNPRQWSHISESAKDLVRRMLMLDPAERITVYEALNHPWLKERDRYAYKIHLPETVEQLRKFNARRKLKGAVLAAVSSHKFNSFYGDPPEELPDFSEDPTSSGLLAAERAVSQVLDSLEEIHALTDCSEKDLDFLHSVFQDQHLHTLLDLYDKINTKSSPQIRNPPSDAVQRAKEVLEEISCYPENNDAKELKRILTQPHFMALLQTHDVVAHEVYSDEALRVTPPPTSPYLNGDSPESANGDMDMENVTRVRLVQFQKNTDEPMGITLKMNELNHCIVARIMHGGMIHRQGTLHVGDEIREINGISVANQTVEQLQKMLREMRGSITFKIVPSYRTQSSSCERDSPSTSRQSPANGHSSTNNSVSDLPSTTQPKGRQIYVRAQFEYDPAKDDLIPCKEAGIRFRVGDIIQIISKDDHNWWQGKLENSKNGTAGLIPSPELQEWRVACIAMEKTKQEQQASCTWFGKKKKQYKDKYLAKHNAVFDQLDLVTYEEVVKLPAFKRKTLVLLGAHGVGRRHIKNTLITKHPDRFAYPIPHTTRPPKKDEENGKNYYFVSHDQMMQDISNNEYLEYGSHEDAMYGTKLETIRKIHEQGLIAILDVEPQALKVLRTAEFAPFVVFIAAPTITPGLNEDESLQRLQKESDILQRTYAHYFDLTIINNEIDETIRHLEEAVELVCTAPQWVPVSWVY

[9] = molecular target: Dual specificity testis-specific protein kinase 1 (Homo sapiens) (UniProt Q15569); experiment: Inhibition of TESK1 (unknown origin) assessed as residual activity at 100 nM by KINOMEscan analysis relative to control
Chain of Dual specificity testis-specific protein kinase 1 (Homo sapiens) (Q15569 whole entry, looked up): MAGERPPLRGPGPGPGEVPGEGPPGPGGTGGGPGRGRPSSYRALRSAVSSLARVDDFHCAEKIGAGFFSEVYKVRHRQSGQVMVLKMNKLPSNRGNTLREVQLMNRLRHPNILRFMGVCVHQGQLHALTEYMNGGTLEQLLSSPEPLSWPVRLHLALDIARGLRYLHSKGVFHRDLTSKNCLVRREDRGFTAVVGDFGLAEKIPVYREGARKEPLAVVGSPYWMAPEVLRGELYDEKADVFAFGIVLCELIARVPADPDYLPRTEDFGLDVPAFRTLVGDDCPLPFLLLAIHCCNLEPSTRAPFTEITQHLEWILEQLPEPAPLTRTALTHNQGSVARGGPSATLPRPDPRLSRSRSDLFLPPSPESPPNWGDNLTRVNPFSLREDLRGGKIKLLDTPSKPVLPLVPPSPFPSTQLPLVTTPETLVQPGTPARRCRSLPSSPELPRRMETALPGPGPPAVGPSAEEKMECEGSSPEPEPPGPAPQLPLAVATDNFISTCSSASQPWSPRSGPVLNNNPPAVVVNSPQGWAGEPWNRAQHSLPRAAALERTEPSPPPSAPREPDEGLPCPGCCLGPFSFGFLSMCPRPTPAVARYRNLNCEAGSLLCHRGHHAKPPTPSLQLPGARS

[10] = molecular target: Proto-oncogene tyrosine-protein kinase ROS (Homo sapiens) (UniProt P08922); experiment: Inhibition of ROS1 (unknown origin) assessed as residual activity at 100 nM by KINOMEscan analysis relative to control
[11] = test system: Phosphatidylinositol 4,5-bisphosphate 3-kinase catalytic subunit alpha isoform (Homo sapiens), P42336 [M1043I]; experiment: Inhibition of PIK3CA M1043I mutant (unknown origin) assessed as residual activity at 100 nM by KINOMEscan analysis relative to control
Chain of Phosphatidylinositol 4,5-bisphosphate 3-kinase catalytic subunit alpha isoform (Homo sapiens), P42336 [M1043I] (P42336 whole entry M1043I, canonical isoform): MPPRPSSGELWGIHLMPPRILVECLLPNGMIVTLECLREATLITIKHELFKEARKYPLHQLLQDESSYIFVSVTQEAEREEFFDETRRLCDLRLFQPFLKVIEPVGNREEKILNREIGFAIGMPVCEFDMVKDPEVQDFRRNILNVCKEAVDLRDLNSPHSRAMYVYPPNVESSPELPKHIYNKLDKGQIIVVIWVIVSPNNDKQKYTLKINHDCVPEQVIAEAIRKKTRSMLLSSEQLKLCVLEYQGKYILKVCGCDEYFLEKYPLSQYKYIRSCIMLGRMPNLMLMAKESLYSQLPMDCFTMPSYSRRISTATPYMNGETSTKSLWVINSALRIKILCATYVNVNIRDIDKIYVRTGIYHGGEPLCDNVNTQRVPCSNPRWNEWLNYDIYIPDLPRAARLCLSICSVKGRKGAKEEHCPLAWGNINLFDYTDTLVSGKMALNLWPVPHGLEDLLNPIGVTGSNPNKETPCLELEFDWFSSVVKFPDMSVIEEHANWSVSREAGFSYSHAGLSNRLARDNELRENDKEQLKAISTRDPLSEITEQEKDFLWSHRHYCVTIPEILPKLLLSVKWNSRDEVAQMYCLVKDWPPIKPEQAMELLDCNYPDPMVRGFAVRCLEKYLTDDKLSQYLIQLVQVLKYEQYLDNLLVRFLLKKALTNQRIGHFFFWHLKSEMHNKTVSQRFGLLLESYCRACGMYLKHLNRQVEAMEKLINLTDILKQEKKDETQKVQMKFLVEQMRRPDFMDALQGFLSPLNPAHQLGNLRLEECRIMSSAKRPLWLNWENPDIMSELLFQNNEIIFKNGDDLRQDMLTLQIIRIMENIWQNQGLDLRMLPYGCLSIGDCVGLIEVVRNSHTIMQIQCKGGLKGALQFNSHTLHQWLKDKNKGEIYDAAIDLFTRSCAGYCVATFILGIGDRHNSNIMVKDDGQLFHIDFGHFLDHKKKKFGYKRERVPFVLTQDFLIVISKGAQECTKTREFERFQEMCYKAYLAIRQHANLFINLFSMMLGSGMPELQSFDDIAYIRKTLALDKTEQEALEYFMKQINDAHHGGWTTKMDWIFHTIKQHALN

Chain of Mast/stem cell growth factor receptor Kit (Homo sapiens), P10721 [L576P] (P10721 whole entry L576P): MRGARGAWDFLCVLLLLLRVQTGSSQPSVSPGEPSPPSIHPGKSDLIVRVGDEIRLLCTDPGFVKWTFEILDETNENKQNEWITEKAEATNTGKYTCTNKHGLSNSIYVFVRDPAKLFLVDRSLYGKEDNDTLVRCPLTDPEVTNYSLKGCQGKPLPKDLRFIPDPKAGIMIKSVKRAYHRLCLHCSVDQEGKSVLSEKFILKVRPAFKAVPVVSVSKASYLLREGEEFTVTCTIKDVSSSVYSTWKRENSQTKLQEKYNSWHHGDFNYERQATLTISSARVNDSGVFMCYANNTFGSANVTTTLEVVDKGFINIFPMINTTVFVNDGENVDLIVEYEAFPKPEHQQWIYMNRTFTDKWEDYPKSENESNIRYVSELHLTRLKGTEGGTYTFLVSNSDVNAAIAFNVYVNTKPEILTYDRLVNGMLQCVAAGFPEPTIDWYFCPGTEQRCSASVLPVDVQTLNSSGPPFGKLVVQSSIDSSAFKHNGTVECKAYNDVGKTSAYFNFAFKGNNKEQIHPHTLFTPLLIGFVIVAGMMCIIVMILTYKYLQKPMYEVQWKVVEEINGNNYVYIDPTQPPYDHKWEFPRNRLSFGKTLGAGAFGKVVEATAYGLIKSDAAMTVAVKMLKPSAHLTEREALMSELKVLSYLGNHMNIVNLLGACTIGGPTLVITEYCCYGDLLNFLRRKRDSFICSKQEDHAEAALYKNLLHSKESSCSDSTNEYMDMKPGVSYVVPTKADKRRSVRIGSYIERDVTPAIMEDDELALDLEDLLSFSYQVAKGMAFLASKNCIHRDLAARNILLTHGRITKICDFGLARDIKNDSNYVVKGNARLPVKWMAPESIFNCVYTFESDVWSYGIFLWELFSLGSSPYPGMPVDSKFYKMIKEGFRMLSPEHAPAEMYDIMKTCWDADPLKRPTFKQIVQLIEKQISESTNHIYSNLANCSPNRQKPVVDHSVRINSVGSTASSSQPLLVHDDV

Question: `COc1cc2ncnc(N[C@H](C)c3cccc4ccccc34)c2cc1OC` was tested. Which Activity [1] did it give?
Answer: 85%

Question: And the Activity [2]?
Answer: 82%

Question: What about the Activity [3] of the same compound?
Answer: 70%

Question: And the Activity [4]?
Answer: 71%

Question: And the Activity [5]?
Answer: 92%

Question: And the Activity [6]?
Answer: 80%

Question: And the Activity [7]?
Answer: 100%

Question: What about the Activity [8] of the same compound?
Answer: 72%

Question: And the Activity [9]?
Answer: 73%

Question: And the Activity [10]?
Answer: 100%

Question: What about the Activity [11] of the same compound?
Answer: 89%
